Laboratory results: paper PMC3755965, “A Small Peptide with Therapeutic Potential for Inflammatory Acne Vulgaris” (PLoS ONE, 2013)
≈ marks a conversion by molar mass, not a printed value. Where a SMILES comes first, the peptide text is derived from it.

How the values were obtained:
[1] = test system: Human HaCaT keratinocyte cells; settings: 20 to 200 µg/ml, 24-h treatment, MTT, A570, mean of five experiments
Experimental: Human HaCaT keratinocyte cells (1×10^5 cells/ml, obtained from Cell Bank of Kunming Institute of Zoology, Chinese Academy of Sciences) were cultured in 96-well plates with Dulbecco’s modified Eagle’s medium (DMEM, Gibco) containing 10% fetal calf serum and penicillin (100 u/ml)-streptomycin (100 mg/ml) at 37°C in a humidified 5% CO2 atmosphere. Cell viability was evaluated by conventional 3-(4, 5-dimethyl-2-thiazolyl)-2, 5-diphenyl-2H-tetrazolium bromide (MTT) reduction assays. After a 24-h treatment by testing sample, 20 µl of MTT (5 mg/ml) was added to each well. The MTT solution was then removed and 200 µl dimethyl sulfoxide (DMSO) was added to solubilize the MTT-formazan cristals in living cells. The absorbance at 570 nm of the resulting solution was measured. The experiments were performed in triplicate.

human red blood cells = settings: up to 320 µg/ml, 37°C, 30 min, A540, relative to 1% Triton X-100, mean of five experiments
Experimental: Hemolysis assay was undertaken using human red blood cells in liquid medium as our previous reports. Serial dilutions of testing sample were incubated with human red cells at 37°C. After the incubation for 30 min, the cells were centrifuged and the absorbance in the supernatant was measured at 540 nm. Maximum hemolysis was determined by adding 1% Triton X-100 to a sample of cells. Hemolysis of testing samples was calculated as the percentage of cytotoxicity of Triton X-100.

[2] = Effect of human plasma on antibacterial activity (inhibition zone); type: in vitro ADME; settings: 100 µM, 37°C, inhibition zone on P. acnes ATCC6919, S. epidermidis 09A3726, S. aureus 09B2499, three experiments
Experimental: LZ1 or human cathelicidin antimicrobial peptide LL-37 (control) was mixed with human plasma (final concentration 100 µM) for 0, 0.5, 1, 2, 4, 6 and 8 hours at 37°C, respectively. Residual antibacterial activity was evaluated by using 10 µl aliquot of the mixture to measure inhibitory zone on bacterial growth on BHI or LB broth containing 0.7% agar as previously described. The diameters of inhibition zones were recorded after 72-hour incubation for P. acnes and 24-hour incubation for S. epidermidis and S. aureus, respectively.

S. epidermidis 09B2490 = settings: LB broth, aerobic, 37°C, 24 or 48 h, A600; mean of three independent experiments in duplicates
Experimental: (§1) The strains of P. acnes were cultured in brain heart infusion (BHI) broth (HKM, Guangzhou, China) with 1% glucose at 37°C under an anaerobic atmosphere using MGC Anaeropack systems (Mitsubishi, Gas Chemical Co., Inc, Japan), respectively. […] S. epidermidis (09A3726 and 09B2490) and S. aureus (ATCC 2592) were grown in LB (Luria-Bertani) broth as our previous report.
(§2) Briefly, samples were prepared as a stock solution in 0.9% salt water at a series of concentration. 890 µl special broth (BHI broth for P. acnes, LB broth for S. epidermidis and S. aureus), 100 µl bacterial suspension (10^8 CFU/ml) and 10 µl test sample were put together in the test tube under anaerobic conditions at 37°C for 72 h for P. acnes and under aerobic conditions at 37°C for 24 or 48 h for S. epidermidis and S. aureus. An absorbance at 600 nm was measured by a microplate reader to estimate bacterial growth. The MIC was defined as the lowest concentration of test sample completely inhibiting microorganism’s growth.

P. acnes ATCC11827 = settings: BHI broth, anaerobic, 37°C, 72 h, A600; mean of three independent experiments in duplicates; ND = no detectable activity
Experimental: as §1, §2

S. epidermidis 09A3726 = settings: LB broth, aerobic, 37°C, 24 or 48 h, A600; mean of three independent experiments in duplicates; ND = no detectable activity
Experimental: as §1, §2

[3] = test system: P. acnes (IS, DR), clinically isolated strain with clindamycin resistance; settings: clindamycin-resistant clinical isolate; BHI broth, anaerobic, 37°C, 72 h, A600; mean of three independent experiments in duplicates; ND = no detectable activity
Experimental: as §1, §2

P. acnes ATCC6919 = settings: BHI broth, anaerobic, 37°C, 72 h, A600; mean of three independent experiments in duplicates; ND = no detectable activity
Experimental: as §1, §2

S. aureus 09B2499 = settings: LB broth, aerobic, 37°C, 24 or 48 h, A600; mean of three independent experiments in duplicates
P. acnes (ATCC6919) = assay: P. acnes colonization within mouse ear (CFU count); type: in vivo, Kunming mice; settings: for P. acnes colonized within the ear: mean of four experiments
Experimental: As described previously, P. acnes (ATCC6919) was grown to the exponential-phase in BHI broth and then centrifuged at 1000 g for 10 min. The bacterium pellet was then washed twice and re-suspended in 0.9% salt water (5×10^8 CFU/ml). Kunming mice (20 ± 2 g) were anesthetised by intraperitoneal (IP) administration of ketamine (50 mg/kg) and xylazine (15 mg/kg), and then 20 µl P. acnes solution was intradermally injected into left ears of the mice. Right ears received the same volume of 0.9% salt water. Placebo or 0.2% LZ1 gel (Polyethylene Glycol (PEG) 400: PEG 4000, 1:1) was applied on the surface of right ear skin after injection with P. acnes or saline. […] Ear thickness after 24 h bacterial injection was measured using a micro caliper.
To determine P. acnes number in the ear, the left ear was cut off after 24 h bacterial injection and the mice were sacrificed immediately by cervical dislocation. The ears were wiped to remove gel and then homogenized in 0.9% salt water (1 ml per ear) with a hand tissue grinder. CFUs of P. acnes in the ear were enumerated by plating serial dilutions of the homogenate on BHI plates and the bacterial numbers were counted after 72 h incubation under anaerobic conditions at 37°C.
To further investigate the therapeutical effect, the increase in ear thickness and the P. acnes number in the ear after bacterial injection were determined continuously on day 2 to day 5 as described above. […] All the experimental protocols to use animals were approved by the Animal Care and Use Committee at Kunming Institute of Zoology, Chinese Academy of Sciences.

IL-1β = IL-1β in ear homogenate, ELISA; type: in vivo, Kunming mice
Experimental: (§3) Ears of Kunming mice were injected with live P. acnes (ATCC 6919) as described above. The ear was excised on day 1 to day 5 after bacterial injection respectively, and then homogenized in 0.9% salt water (1 ml per ear) with a hand tissue grinder. The supernatant was collected after the centrifugation at 2000 × g for 10 min and then was used for cytokine measurement. The concentration of TNF-α and IL-1β was measured by using enzyme-linked immunosorbent assay kits (Excell Bio, Shanghai, China).

[4] = test system: P. acnes (ATCC6919)-induced ear swelling; assay: P. acnes-induced ear swelling in mice; type: in vivo, Kunming mice; settings: mean of four experiments
[5] = test system: infiltrated inflammatory cells; assay: Histological check of mouse ears (HE stain); type: in vivo, Kunming mice; settings: 24 h after P. acnes challenge, epicutaneous 0.2% gel, in words
Text: Ears of Kunming mice were excised and fixed in neutral-buffered 10% formalin solution and embedded in paraffin by routine procedures. The slides were cut at approximately 4 µm and stained routinely with haematoxylin and eosin (HE). Images were obtained using a Nikon Eclipse 80i microscope (Nikon, Japan).

TNF-α = TNF-α in ear homogenate, ELISA; type: in vivo, Kunming mice; settings: day 1 to day 5, epicutaneous 0.2% gel, in words
Experimental: as §3

With `CC(C)[C@H](N)C(=O)N[C@@H](CCCCN)C(=O)N[C@@H](CCCNC(=N)N)C(=O)N[C@@H](Cc1c[nH]c2ccccc12)C(=O)N[C@@H](CCCCN)C(=O)N[C@@H](CCCCN)C(=O)N[C@@H](Cc1c[nH]c2ccccc12)C(=O)N[C@@H](Cc1c[nH]c2ccccc12)C(=O)N[C@@H](CCCNC(=N)N)C(=O)N[C@@H](CCCCN)C(=O)N[C@@H](Cc1c[nH]c2ccccc12)C(=O)N[C@@H](CCCCN)C(=O)N[C@@H](CCCCN)C(=O)N[C@@H](Cc1c[nH]c2ccccc12)C(=O)N[C@H](C(N)=O)C(C)C` [LZ1] (H-VKRWKKWWRKWKKWV-NH2) as the molecule, how does the “effects on cell viabilities (cytotoxicity)” value [1] read?
The value was “no more than 5.6%”.

What about the hemolytic activity (human red blood cells) of the same molecule?
The hemolytic activity was “no more than 5.2%”.

What about the “antibacterial activity after incubation with human plasma” value ([2]; 8 hours) of the same molecule?
The value was “could not be significantly affected”.

And the MIC (S. epidermidis 09B2490)?
Its MIC is 2.3 µg/mL (≈ 1.03 µM).

What about the MIC (P. acnes ATCC11827) of the same molecule?
Its MIC is 0.6 µg/mL (≈ 0.269 µM).

And the MIC (S. epidermidis 09A3726)?
The MIC was 4.7 µg/mL (≈ 2.11 µM).

And the MIC [3]?
The MIC was 0.6 µg/mL (≈ 0.269 µM).

What about the MIC (P. acnes ATCC6919) of the same molecule?
The MIC was 0.6 µg/mL (≈ 0.269 µM).

What about the MIC (S. aureus 09B2499) of the same molecule?
The MIC was 2.3 µg/mL (≈ 1.03 µM).

For `CCC[C@@H]1C[C@@H](C(=O)N[C@@H]([C@H]2O[C@H](SC)[C@H](OP(=O)(O)O)[C@@H](O)[C@H]2O)[C@H](C)Cl)N(C)C1` [clindamycin, clindamycin phosphate], which “P. acnes colonized within the ear” value (P. acnes (ATCC6919); Day 1, 0.2% gel epicutaneous) is on record?
Its value is 360±77 10^3 CFU per ear.

And the “P. acnes colonized within the ear” value (P. acnes (ATCC6919); Day 2, 0.2% gel epicutaneous once per day)?
The value was 32±4.1 10^3 CFU per ear.

And the “P. acnes colonized within the ear” value (P. acnes (ATCC6919); Day 3, 0.2% gel epicutaneous once per day)?
The value was 14±1.7 10^3 CFU per ear.

What about the “P. acnes colonized within the ear” value (P. acnes (ATCC6919); Day 4, 0.2% gel epicutaneous once per day) of the same molecule?
Its value is 6±0.5 10^3 CFU per ear.

And the “P. acnes colonized within the ear” value (P. acnes (ATCC6919); Day 5, 0.2% gel epicutaneous once per day)?
Its value is 1.5±0.1 10^3 CFU per ear.

And the “reduction in the number of P. acnes colonized within the ear” value (P. acnes (ATCC6919); day 2, versus vehicle)?
The value was 58.9%.

What about the “reduction in the number of P. acnes colonized within the ear” value (P. acnes (ATCC6919); day 3, versus vehicle) of the same molecule?
Its value is 58.8%.

What about the “reduction in the number of P. acnes colonized within the ear” value (P. acnes (ATCC6919); day 4, versus vehicle) of the same molecule?
The value was 71.4%.

What about the “reduction in the number of P. acnes colonized within the ear” value (P. acnes (ATCC6919); day 5, versus vehicle) of the same molecule?
The value was 50%.

What about the “IL-1β concentration in mouse ear” value (IL-1β; day 1, 1 ml saline per ear, vehicle 483, three experiments) of the same molecule?
Its value is 346 pg/mL.

What about the “IL-1β concentration in mouse ear” value (IL-1β; day 2, 1 ml saline per ear, vehicle 221, three experiments) of the same molecule?
The value was 83 pg/mL.

And the “IL-1β concentration in mouse ear” value (IL-1β; day 3, 1 ml saline per ear, vehicle 48, three experiments)?
Its value is 43 pg/mL.

And the “IL-1β concentration in mouse ear” value (IL-1β; day 4, 1 ml saline per ear, vehicle 30, three experiments)?
The value was 45 pg/mL.

And the “IL-1β concentration in mouse ear” value (IL-1β; day 5, 1 ml saline per ear, vehicle 41, three experiments)?
Its value is 46 pg/mL.

What about the “ear thickness, % of the control (un-challenged)” value (from here on “ear thickness, % of the control”) ([4]; day 1 after P. acnes injection, 0.2% gel epicutaneous) of the same molecule?
Its value is 147%.

What about the “ear thickness, % of the control” value ([4]; day 2, 0.2% gel epicutaneous once per day) of the same molecule?
The value was 145%.

What about the “ear thickness, % of the control” value ([4]; day 3, 0.2% gel epicutaneous once per day) of the same molecule?
Its value is 130%.

What about the “ear thickness, % of the control” value ([4]; day 4, 0.2% gel epicutaneous once per day) of the same molecule?
Its value is 125%.

What about the “ear thickness, % of the control” value ([4]; day 5, 0.2% gel epicutaneous once per day) of the same molecule?
The value was 105%.

What about the “number of infiltrated inflammatory cells” value [5] of the same molecule?
The value was “decreased infiltrated inflammatory cells”.

What about the “effect on TNF-α secretion induced by P. acnes challenge” value (TNF-α) of the same molecule?
The value was “no inhibitory effect”.

For “LL-37: human cathelicidin antimicrobial peptide LL-37 (control)”, which “antibacterial activity after incubation with human plasma” value ([2]; 1 hour) is on record?
The value was “completely lost its antibacterial activity”.
